Experimental data taken from patent US6964759B2, “Formulations containing an anticholinergic drug for the treatment of chronic obstructive pulmonary disease” (Chiesi Farmaceutici S.p.A., priority 2000, dated 2005).

How the values were obtained:
[1] = Aerodynamic particle size distribution and delivery performance, Andersen Cascade Impactor; assay type: physicochemical
Description: The aerodynamic particle size distribution of each tested formulation was characterized using a Multistage Cascade Impactor according to the procedure described in European Pharmacopoeia 2nd edition, 1995, part V.5.9.1, pages 15-17. In this specific case, an Andersen Cascade Impactor (ACI) was used.
Results were obtained as a mean of 3-4 cans. For each device, 5-25 cumulative actuations were carried out after discarding the first 5.
Deposition of the drug on each ACI plate was determined by high pressure liquid chromatography (HPLC). Mean metered dose was calculated from the cumulative deposition in the actuator and ACI (stages); mean delivered dose was calculated from the cumulative deposition in the ACI. Mean respirable dose (fine particle dose) was obtained from the deposition on Stages 3 to filter corresponding to particles ≦4.71 μm, divided by the number of actuations per experiment.
MAD and associated GSD (standard geometric deviation) values were obtained from probit transformation of cumulative percent undersize—log (ACI effective cut-off particle size diameter) and linear regression analysis of the resultant data, (Ph. Eur. Supp 1999).
The use of a metering chamber volume of 100 μl allows a 320 μg strength variant of the 160 μg formulation.
The delivery characteristics of the formulation in cans equipped with standard Bespack BK 360 actuators with 0.3 mm orifice diameter and a metering chamber volume of 50 μl are reported in Table 2. The use of a metering chamber volume of 100 μl allows a 160 μg strength variant of the 80 μg formulation.
The relevant parameters were determined as described in Example 1.

[2] = inhaled single doses of at least 160 μg; cited from earlier work
[3] = nominal dose 20 μg, HFA 134a, 13% ethanol, 1% glycerol
[4] = nominal dose 20 μg, HFA 134a, 13% ethanol, 1% glycerol, 0.3 mm orifice, 50 μl chamber
[5] = nominal dose 40 μg, HFA 134a, 13% ethanol, 1% glycerol
[6] = nominal dose 40 μg, HFA 134a, 13% ethanol, 1% glycerol, 0.3 mm orifice, 50 μl chamber
[7] = nominal dose 80 μg, HFA 134a, 13% ethanol, 1% glycerol
[8] = nominal dose 80 μg, HFA 134a, 13% ethanol, 1% glycerol, 0.3 mm orifice, 50 μl chamber
[9] = nominal dose 80 μg, HFA 134a, 19% ethanol, without the low volatility component
[10] = nominal dose 160 μg, HFA 134a, 13% ethanol, 1% glycerol
[11] = nominal dose 160 μg, HFA 134a, 13% ethanol, 1% glycerol, 0.3 mm orifice, 50 μl chamber
[12] = nominal dose 160 μg, HFA 134a, 19% ethanol, without the low volatility component
[13] = nominal dose 320 μg, HFA 134a, 13% ethanol, 1% glycerol
[14] = nominal dose 320 μg, HFA 134a, 13% ethanol, 1% glycerol, 0.3 mm orifice, 100 μl chamber

For `CC(C)[N+]1(C)[C@@H]2CC[C@H]1CC(OC(=O)C(CO)c1ccccc1)C2.[Br-]` (stereo partly drawn) [ipratropium bromide], the MAD ([1]; Example 1 formulations with glycerol, over all nominal doses) was 2.2-2.9 μm, the MAD ([1]; formulation containing an ethanol level of 19% by weight, nominal doses 80 and 160 μg) was 1.2-1.3 μm and the GSD [1, 3] was 2.1 ± 0.8. For the same compound, the MAD [1, 3] was 2.4 ± 0.3 μm, the Respirable fraction [1, 3] was 33.3 ± 3.8% and the Delivered dose [1, 4] was 18.8 ± 1.6 µg. It also gave a Metered dose [1, 4] of 20.6 ± 1.6 µg, a Respirable dose ([1]; nominal dose 20 μg, particles less than 4.7 μm, HFA 134a, 13% ethanol, 1% glycerol) of 6.8 ± 1.1 µg and a GSD [1, 5] of 2.1 ± 0.1. The MAD [1, 5] was 2.2 ± 0.1 μm, the Respirable fraction [1, 5] was 31.5 ± 3.8% and the Delivered dose [1, 6] was 38.7 ± 1.9 µg. The Metered dose [1, 6] was 42.2 ± 1.8 µg, the Respirable dose ([1]; nominal dose 40 μg, particles less than 4.7 μm, HFA 134a, 13% ethanol, 1% glycerol) was 11.7 ± 1.2 µg and the GSD [1, 7] was 2.2 ± 0.1. For the same compound, the MAD [1, 7] was 2.7 ± 0.3 μm, the Respirable fraction [1, 7] was 32.0 ± 6.1% and the Delivered dose [1, 8] was 72.7 ± 0.6 µg. It also gave a Metered dose [1, 8] of 78.5 ± 0.4 µg, a Delivered dose [1, 9] of 70.0 ± 1.0 µg and a GSD [1, 9] of 4.3 ± 0.4. It also gave an MAD [1, 9] of 1.2 ± 0.1 μm, a Respirable dose [1, 9] of 20.0 ± 1.3 µg and a Respirable fraction [1, 9] of 28.7 ± 1.5%. It also gave a Metered dose ([1]; nominal dose 80 μg, HFA 134a, 19% ethanol, without the low volatility component, 0.3 mm orifice, 50 μl chamber) of 76.6 ± 1.6 µg, a Respirable dose ([1]; nominal dose 80 μg, particles less than 4.7 μm, HFA 134a, 13% ethanol, 1% glycerol) of 23.3 ± 4.5 µg and a GSD [1, 10] of 2.3 ± 0.1. The MAD [1, 10] was 2.5 ± 0.2 μm, the Respirable fraction [1, 10] was 30.4 ± 3.5% and the Delivered dose [1, 11] was 149.2 ± 10.7 µg. The Metered dose [1, 11] was 161.1 ± 12.5 µg, the Delivered dose [1, 12] was 144.2 ± 1.7 µg and the GSD [1, 12] was 6.2 ± 0.2. It also gave an MAD [1, 12] of 1.3 ± 0.2 μm, a Respirable dose [1, 12] of 31.4 ± 1.3 µg and a Respirable fraction [1, 12] of 21.8 ± 1.1%. The Metered dose ([1]; nominal dose 160 μg, HFA 134a, 19% ethanol, without the low volatility component, 0.3 mm orifice, 100 μl chamber) was 158.5 ± 2.0 µg, the Respirable dose ([1]; nominal dose 160 μg, particles less than 4.7 μm, HFA 134a, 13% ethanol, 1% glycerol) was 45.2 ± 2.5 µg and the GSD [1, 13] was 2.6 ± 0.1. It also gave an MAD [1, 13] of 2.9 ± 0.2 μm, a Respirable fraction [1, 13] of 25.2 ± 1.2% and a Delivered dose [1, 14] of 290.5 ± 1.9 µg. The Metered dose [1, 14] was 321.4 ± 2.0 µg, the Respirable dose ([1]; nominal dose 320 μg, particles less than 4.7 μm, HFA 134a, 13% ethanol, 1% glycerol) was 73.2 ± 3.0 µg and the Duration of action [2] was “up to 12 hours”.
